Calls of active or inactive are those of the source. No cut-off for these calls is given here.
Experiments:
Rattus norvegicus [1] = assay: In vivo agonist activity at NPR-A in Crl:CD(SD) rat assessed as increase in cGMP accumulation in kidney at 1 ug/kg/min, iv administered as infusion over 30 mins by radioimmunoassay; format: functional, organism-based
Rattus norvegicus [2] = assay: Diuretic activity in Crl:CD(SD) rat assessed as increase in urine volume at 10 ug/kg, iv administered as bolus dose measured up to 60 mins; format: functional, organism-based
[3] = target: T1, Atrial natriuretic peptide receptor 1 (Homo sapiens, UniProt P16066); assay: Agonist activity at human NPR-A expressed in CHO cells assessed as increase in cGMP accumulation after 30 mins by radioimmunoassay; format: cell-based
T1 sequence (P16066 whole entry): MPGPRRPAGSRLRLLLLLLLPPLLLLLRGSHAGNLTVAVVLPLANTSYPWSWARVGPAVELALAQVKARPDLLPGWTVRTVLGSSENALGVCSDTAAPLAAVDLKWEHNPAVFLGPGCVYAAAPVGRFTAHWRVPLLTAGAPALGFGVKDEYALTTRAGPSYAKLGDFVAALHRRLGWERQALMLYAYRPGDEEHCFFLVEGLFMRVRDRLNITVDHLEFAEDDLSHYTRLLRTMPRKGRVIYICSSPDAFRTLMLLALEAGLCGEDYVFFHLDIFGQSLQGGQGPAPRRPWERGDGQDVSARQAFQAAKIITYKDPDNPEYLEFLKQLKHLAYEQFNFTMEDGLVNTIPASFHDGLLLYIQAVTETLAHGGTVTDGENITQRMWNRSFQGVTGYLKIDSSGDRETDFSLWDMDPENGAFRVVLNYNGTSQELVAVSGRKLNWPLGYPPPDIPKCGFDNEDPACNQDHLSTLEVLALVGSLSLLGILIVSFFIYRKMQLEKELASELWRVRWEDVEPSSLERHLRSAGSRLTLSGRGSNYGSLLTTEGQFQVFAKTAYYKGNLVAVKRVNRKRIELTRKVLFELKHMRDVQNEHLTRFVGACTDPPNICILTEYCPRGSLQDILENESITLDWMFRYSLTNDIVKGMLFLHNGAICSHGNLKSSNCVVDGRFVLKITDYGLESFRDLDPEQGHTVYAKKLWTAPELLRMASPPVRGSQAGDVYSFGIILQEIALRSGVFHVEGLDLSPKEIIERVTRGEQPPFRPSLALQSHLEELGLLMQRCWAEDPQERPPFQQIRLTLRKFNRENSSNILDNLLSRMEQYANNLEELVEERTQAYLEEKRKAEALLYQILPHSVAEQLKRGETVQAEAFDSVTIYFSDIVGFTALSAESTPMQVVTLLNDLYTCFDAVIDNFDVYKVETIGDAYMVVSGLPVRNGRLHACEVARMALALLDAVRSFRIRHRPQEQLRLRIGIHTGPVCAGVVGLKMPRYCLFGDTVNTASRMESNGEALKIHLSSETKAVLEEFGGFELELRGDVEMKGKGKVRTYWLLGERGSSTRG

[4] = target: T2, Atrial natriuretic peptide receptor 1 (Rattus norvegicus, UniProt P18910); assay: Agonist activity at rat NPR-A expressed in CHO cells assessed as increase in cGMP accumulation after 15 mins by fluorescent assay; format: cell-based
T2 sequence (P18910 whole entry): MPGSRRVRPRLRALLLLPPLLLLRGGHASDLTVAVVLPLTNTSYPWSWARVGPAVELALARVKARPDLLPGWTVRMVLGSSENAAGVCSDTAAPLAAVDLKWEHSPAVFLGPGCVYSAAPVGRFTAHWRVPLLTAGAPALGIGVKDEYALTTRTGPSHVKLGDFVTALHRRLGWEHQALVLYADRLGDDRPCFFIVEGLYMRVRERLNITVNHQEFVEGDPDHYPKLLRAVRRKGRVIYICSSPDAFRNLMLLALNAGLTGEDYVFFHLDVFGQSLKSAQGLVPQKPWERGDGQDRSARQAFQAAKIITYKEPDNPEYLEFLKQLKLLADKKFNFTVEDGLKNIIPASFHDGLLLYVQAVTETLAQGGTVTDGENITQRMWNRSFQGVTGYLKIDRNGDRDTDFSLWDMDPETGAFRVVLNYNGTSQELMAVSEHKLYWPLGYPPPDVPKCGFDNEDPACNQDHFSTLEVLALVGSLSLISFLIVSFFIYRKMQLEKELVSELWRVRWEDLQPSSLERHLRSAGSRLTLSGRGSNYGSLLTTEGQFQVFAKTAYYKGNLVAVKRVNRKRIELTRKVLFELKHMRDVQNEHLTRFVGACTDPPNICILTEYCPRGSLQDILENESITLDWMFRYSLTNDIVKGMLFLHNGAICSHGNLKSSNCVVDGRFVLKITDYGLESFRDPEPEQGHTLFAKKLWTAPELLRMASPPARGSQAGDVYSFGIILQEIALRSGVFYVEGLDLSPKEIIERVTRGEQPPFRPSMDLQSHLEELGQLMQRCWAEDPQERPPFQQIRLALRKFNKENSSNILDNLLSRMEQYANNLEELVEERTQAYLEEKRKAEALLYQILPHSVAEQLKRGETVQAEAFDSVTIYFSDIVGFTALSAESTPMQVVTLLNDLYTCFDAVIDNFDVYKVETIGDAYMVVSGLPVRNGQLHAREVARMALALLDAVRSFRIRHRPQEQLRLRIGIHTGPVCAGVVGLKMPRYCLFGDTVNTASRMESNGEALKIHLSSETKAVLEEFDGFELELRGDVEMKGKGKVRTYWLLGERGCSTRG

Rattus norvegicus [5] = assay: Diuretic activity in iv dosed Crl:CD(SD) rat assessed as increase in urine volume administered as bolus dose measured up to 60 mins; format: functional, organism-based
Rattus norvegicus [6] = assay: In vivo agonist activity at NPR-A in iv dosed Crl:CD(SD) rat assessed as increase in cGMP accumulation in kidney administered as infusion over 30 mins by radioimmunoassay; format: functional, organism-based
Rattus norvegicus [7] = assay: In vivo agonist activity at NPR-A in Crl:CD(SD) rat assessed as increase in cGMP accumulation in lung at 30 ug/kg/min, iv; format: functional, organism-based

With CC[C@H](C)[C@@H]1NC(=O)[C@H](CCCNC(=N)N)NC(=O)[C@H](CC(=O)O)NC(=O)[C@H](CCSC)NC(=O)[C@H](CCCNC(=N)N)NC(=O)CNC(=O)CNC(=O)[C@H](Cc2ccccc2)NC(=O)[C@@H](NC(=O)[C@H](CO)NC(=O)[C@H](CO)NC(=O)[C@H](CCCNC(=N)N)NC(=O)[C@H](CCCNC(=N)N)NC(=O)[C@H](CC(C)C)NC(=O)[C@@H](N)CO)CSSC[C@@H](C(=O)N[C@@H](CC(N)=O)C(=O)N[C@@H](CO)C(=O)N[C@@H](Cc2ccccc2)C(=O)N[C@@H](CCCNC(=N)N)C(=O)N[C@@H](Cc2ccc(O)cc2)C(=O)O)NC(=O)CNC(=O)[C@H](CC(C)C)NC(=O)CNC(=O)[C@H](CO)NC(=O)[C@H](CCC(N)=O)NC(=O)[C@H](C)NC(=O)CNC1=O the Activity (Rattus norvegicus [1]) was “Active” and the Activity (Rattus norvegicus [2]) was “Active”.
With CC(C)CC1C(=O)N=C(N)N1c1nc(NC(=N)N)nc(Nc2ccc(Nc3nc(NC(=N)N)nc(N4C(N)=NC(=O)C4C)n3)cc2)n1 (configuration not stated) the EC50 [3] was 19 nM.
CC(C)CC1C(=O)N=C(N)N1c1nc(NC(=N)N)nc(Nc2ccc(Nc3nc(NC(=N)N)nc(N4C(N)=NC(=O)C4CC(C)C)n3)cc2)n1 (configuration not stated) gave an EC50 [3] of 5.8 nM.
Work on CC1C(=O)N=C(N)N1c1nc(NC(=N)N)nc(Nc2ccc(Nc3nc(NC(=N)N)nc(N4C(N)=NC(=O)C4C)n3)cc2)n1 (configuration not stated) yielded an EC50 [3] greater than 10000 nM.
For CC(C)CC1C(=O)N=C(N)N1c1nc(NC(=N)N)nc(NC2CCC(Nc3nc(NC(=N)N)nc(N4C(N)=NC(=O)C4CC(C)C)n3)CC2)n1 (configuration not stated), the EC50 [4] was 76 nM, the Activity (Rattus norvegicus [5]) was “Dose-dependent effect” and the Activity (Rattus norvegicus [6]) was “Dose-dependent effect”. For the same molecule, the Activity (Rattus norvegicus [7]) was “Active” and the EC50 [3] was 8.1 nM.
In the case of C/N=C(\N(C)C)N(C)c1nc(Nc2ccccc2)nc(N2C(N)=NC(=O)C2CC(C)C)n1 (configuration not stated), the EC50 [3] is reported as 64000 nM.
Molecule CC(C)CC1C(=O)N=C(N)N1c1nc(NC(=N)N)nc(Nc2ccccc2)n1 (configuration not stated) has an EC50 [3] of 4000 nM.
With CCCCC1C(=O)N=C(N)N1c1nc(NC(=N)N)nc(Nc2ccc(Nc3nc(NC(=N)N)nc(N4C(N)=NC(=O)C4CCCC)n3)cc2)n1 (configuration not stated) the EC50 [4] was 23 nM, the Activity (Rattus norvegicus [5]) was “Dose-dependent effect” and the Activity (Rattus norvegicus [6]) was “Dose-dependent effect”. For the same molecule, the Activity (Rattus norvegicus [7]) was “Active” and the EC50 [3] was 2 nM.
